Measured values from patent US10485773B2, “Benzenesulfonamide derivatives and method for treating cancer” (GONGWIN BIOPHARM HOLDINGS CO., LTD., priority 2016, dated 2019).
Converted amounts (≈) assume the structure as drawn. Where two headings read alike, the source gives them in different places.

Tests used:
[1] = first dissolution test in DMSO or water; conditions: for dissolution in the first dissolution test: DMSO or water; for Total volume of DMSO for dissolving the p-TSA derivatives / Total volume of water for dissolving the p-TSA derivatives: first dissolution test, amount for a 3M solution in 0.5 mL, up to 15000 μL; for solubility: thermodynamic from solid
Method: Each of the powder of p-TSA derivatives was duplicated, placed in each 15 mL centrifuge tube, followed by adding 200 μL DMSO or 200 μL water and shaking for 10 to 20 seconds for dissolution observation. If the powder was not dissolved, additional DMSO or water was added, and then the mixture was shaken. The tube was left to stand for 10 minutes for observation if the powder was still not dissolved after adding 1 mL DMSO or 1 mL water. If the powder was still not dissolved after adding 5 mL DMSO or 5 mL water, additional 1 mL DMSO or 1 mL water was added, and then the mixture was shaken for 30 seconds. If the powder was still not dissolved after adding 10 mL DMSO or 10 mL water, the tube was left to stand for 12 to 16 hours and observed on the next day. DMSO or water was added into the tube having the undissolved p-TSA derivatives up to 15 mL, followed by shaking for 30 minutes for observation.

[2] = second dissolution test in DMSO or water; type: physicochemical; conditions: for dissolution in the second dissolution test: 100 mg powder, DMSO or water; for Total volume of DMSO for dissolving the p-TSA derivatives / Total volume of water for dissolving the p-TSA derivatives: second dissolution test, 0.1 g powder
Method: A second dissolution test was performed for the undissolved p-TSA derivatives. Each of 100 mg p-TSA derivatives powder was placed in each of the scintillation vial, followed by adding 500 μL DMSO or 500 μL water and shaking for 30 seconds for dissolution observation.

[3] = tested on: human non-small-cell lung cancer cell lines H460; assay: SRB growth inhibition of lung cancer cells; type: cell-based; conditions: 48 hours, SRB
Method: (§1) After letting to stand for 10 minutes at room temperature, the supernatant of each well was removed, and each well was washed with 200 μL H2O once. […] Each of the plates was then placed in the laminar flow cabinet for 1 hour for air dry. 50 μL 0.4% sulforhodamine B (SRB) dye was added into each well of the 96-well plate. […] Each of the plates was then placed in the laminar flow cabinet for 40 minutes to 1 hour for air dry. 1×Tris-Base solution with pH 7.0 to 7.4 was added to each well of the 96-well plate to dissolve the protein complex formed in the bottom of each well, followed by tapping the 96-well plate, allowing the complex in each well to be dissolved uniformly. Absorption of each well under 515 nm was read. […] Each of the experimental group was performed in triplet.

[4] = tested on: human liver cancer cell lines Hep3B; assay: SRB growth inhibition of liver cancer cells; type: cell-based; conditions: 48 hours, SRB
Method: as §1

[5] = Homo sapiens, NCI-H460, 48 h, derivative dissolved in water, read-out: IC50 of H460 in water
[6] = derivative dissolved in DMSO, read-out: IC50 of H460 in DMSO
[7] = Homo sapiens, Hep3B, 48 h, derivative dissolved in water, read-out: IC50 of Hep3B in water
[8] = derivative dissolved in DMSO, read-out: IC50 of Hep3B in DMSO
[9] = Homo sapiens, NCI-H460, 48 h, derivative dissolved in DMSO, read-out: IC50 of H460 in DMSO
[10] = Homo sapiens, Hep3B, 48 h, derivative dissolved in DMSO, read-out: IC50 of Hep3B in DMSO
[11] = DMSO, organic solvent or mixture

SMILES	Total volume of DMSO for dissolving the p-TSA derivatives ([1]; DMSO)	Total volume of water for dissolving the p-TSA derivatives ([1]; water)	IC50 [3, 9] [mM]	IC50 [4, 10] [mM]	also measured
Cc1ccc(S(=O)(=O)N2CC(=NNC(=O)C3CN(S(=O)(=O)c4ccc(C)cc4)C3)C2)cc1 [PTSA073]	insoluble in 15000 μL	insoluble in 15000 μL	–	–	dissolution in the first dissolution test [1]: not dissolved in DMSO or water; dissolution in the second dissolution test [2]: dissolved in both of; Total volume of DMSO for dissolving the p-TSA derivatives [2]: 4.04 mL; Total volume of water for dissolving the p-TSA derivatives [2]: insoluble in 20 mL
CC(=O)NS(=O)(=O)c1ccc(C)cc1 [PTSA002]	insoluble in 15000 μL	insoluble in 15000 μL	–	–	dissolution in the first dissolution test [1]: not dissolved in DMSO or water; dissolution in the second dissolution test [2]: dissolved in both of; Total volume of DMSO for dissolving the p-TSA derivatives [2]: 8 mL; Total volume of water for dissolving the p-TSA derivatives [2]: 5.25 mL; IC50 [3, 5]: > 6.03 mM; IC50 [3, 6]: > 0.27 mM; IC50 [4, 7]: > 6.03 mM; IC50 [4, 8]: > 0.27 mM
Cc1ccc(S(=O)(=O)NC(C)CO)cc1 (stereo not shown) [PTSA025]	560 µL	insoluble in 15000 μL	3.15	3.54	–
Cc1ccc(S(=O)(=O)NC(=O)NS(=O)(=O)c2ccc(C)cc2)cc1 [PTSA017]	2000 µL	insoluble in 15000 μL	> 3	> 3	–
Cc1ccc(S(=O)(=O)N2CC(C(=O)NN)C2)cc1 [PTSA071]	1500 µL	insoluble in 15000 μL	1.04	1.02	–
Cc1ccc(S(=O)(=O)N2CC(N)C2)cc1.Cl [PTSA074]	2500 µL	10000 µL	> 1.8	> 1.8	IC50 [3, 5]: 2.22 mM; IC50 [4, 7]: 2.13 mM
Cc1ccc(S(N)(=O)=O)cc1 [p-TSA, Toluene sulfonamide, reference compound]	–	–	–	–	Solubility in DMSO ([1]; DMSO): 785.95 mg/mL (≈ 4590 mM); Solubility in water ([1]; water): <50 mg/mL; IC50 [3, 6]: 3.72 ± 0.146 mM; IC50 [4, 8]: 3.73 ± 0.274 mM
Cc1ccc(S(=O)(=O)NCCS(=O)(=O)O)cc1 [PTSA048]	2000 µL	10000 µL	> 3	> 3	IC50 [3, 5]: > 3 mM; IC50 [4, 7]: > 3 mM
CC(=O)NS(=O)(=O)c1ccc(C)cc1 [PTSA001]	510 µL	insoluble in 15000 μL	–	–	IC50 [3, 6]: 7.72 mM; IC50 [4, 8]: > 9 mM
Cc1ccc(S(=O)(=O)NC[C@H](C)O)cc1 [PTSA023]	500 µL	insoluble in 15000 μL	2.89	2.65	–
Cc1ccc(S(=O)(=O)N2CCC(O)CC2)cc1 [PTSA032]	insoluble in 15000 μL	insoluble in 15000 μL	–	–	Dissolution of p-TSA derivatives (in DMSO and/or water) ([1]; overall result of first and second dissolution tests, category is the column head of Table 3): not dissolved in neither DMSO nor water; Total volume of DMSO for dissolving the p-TSA derivatives [2]: insoluble in 20 ml mL; Total volume of DMSO for dissolving the p-TSA derivatives ([2]; listed as PTSA0032): > 20 mL; Total volume of water for dissolving the p-TSA derivatives [2]: insoluble in 20 mL; Total volume of water for dissolving the p-TSA derivatives ([2]; listed as PTSA0032): > 20 mL
Cc1ccc(S(=O)(=O)N2CC(C(=O)NO)C2)cc1 [PTSA067]	870 µL	insoluble in 15000 μL	0.273	0.261	solubility [1, 11]: 466 mg/mL (≈ 1720 mM); solubility ([1]; water): < 50 mg/mL
Cc1ccc(S(=O)(=O)N2CCCC2C(=O)O)cc1 (stereo not shown) [PTSA047]	2000 µL	2500 µL	> 3	> 3	IC50 [3, 5]: > 3 mM; IC50 [4, 7]: > 3 mM
Cc1ccc(S(=O)(=O)N2CC(F)(F)C2)cc1 [PTSA064]	750 µL	insoluble in 15000 μL	> 0.713	> 0.713	–
Cc1ccc(S(=O)(=O)NCCOCCO)cc1 [PTSA022]	505 µL	insoluble in 15000 μL	3.65	4.72	–
Cc1ccc(S(=O)(=O)N[C@@H](C)CO)cc1 [PTSA026]	500 µL	insoluble in 15000 μL	3.25	3.92	–
Cc1ccc(S(=O)(=O)N2CCC[C@H]2CO)cc1 [PTSA033]	500 µL	insoluble in 15000 μL	1.42	1.76	–
Cc1ccc(S(=O)(=O)NCCF)cc1 [PTSA049]	insoluble in 15000 μL	insoluble in 15000 μL	> 0.174	> 0.174	dissolution in the first dissolution test [1]: not dissolved in DMSO or water; dissolution in the second dissolution test [2]: dissolved in both of; Total volume of DMSO for dissolving the p-TSA derivatives [2]: 9.5 mL; Total volume of water for dissolving the p-TSA derivatives [2]: insoluble in 20 mL
Cc1ccc(S(=O)(=O)N2CCC(CN)CC2)cc1.Cl [PTSA055]	2000 µL	3000 µL	0.617	0.596	solubility [1, 11]: 229 mg/mL; solubility ([1]; water): 152 mg/mL; IC50 [3, 5]: 0.651 mM; IC50 [4, 7]: 0.61 mM
Cc1ccc(S(=O)(=O)N[C@@H](C)C(=O)O)cc1 [PTSA045]	2000 µL	insoluble in 15000 μL	> 3	> 3	–
COCCNS(=O)(=O)c1ccc(C)cc1 [PTSA042]	475 µL	insoluble in 15000 μL	2.49	2.75	–
COC(=O)NS(=O)(=O)c1ccc(C)cc1 [PTSA012]	680 µL	500 µL	–	–	IC50 [3, 5]: > 5 mM; IC50 [3, 6]: 6.11 mM; IC50 [4, 8]: 7.5 mM
Cc1ccc(S(=O)(=O)N2CC3(COC3)C2)cc1 [PTSA041]	4000 µL	insoluble in 15000 μL	> 2	> 2	–
Cc1ccc(S(=O)(=O)N2CCC(O)C2)cc1 (stereo not shown) [PTSA036]	530 µL	insoluble in 15000 μL	2.54	3.4	–
Cc1ccc(S(=O)(=O)NC(CO)CO)cc1 [PTSA029]	500 µL	insoluble in 15000 μL	1.97	3.05	–
Cc1ccc(S(=O)(=O)NCCN(C)C)cc1.Cl [PTSA051]	1500 µL	1000 µL	1.82	1.41	IC50 [3, 5]: 1.75 mM; IC50 [4, 7]: 1.44 mM
Cc1ccc(S(=O)(=O)N2CC(C(N)=O)C2)cc1 [PTSA062]	3000 µL	insoluble in 15000 μL	> 2.25	> 2.25	–
Cc1ccc(S(=O)(=O)N2CCNCC2)cc1 [PTSA038]	680 µL	insoluble in 15000 μL	1.62	1.57	–
